#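 Interpolation was linear, between the two tested concentrations surrounding the appropriate level; five concentrations were tested over 48 hours in 96-well plates. GI50 marks 50% less growth.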 Calls of active or inactive are those of the source. No stated cut-off is given here; in the data, active = GI50 up to about 1.1 µM and inactive = higher.
# Key:
# Assay in all cases: NCI tumour cell line growth inhibition, 48 h
# 786-0 = test system: 786-0
# A498 = test system: A498
# A549 = test system: A549
# ACHN = test system: ACHN
# CAKI-1 = test system: CAKI-1
# CCRF-CEM = test system: CCRF-CEM
# COLO 205 = test system: COLO 205
# DU-145 = test system: DU-145
# EKVX = test system: EKVX
# HCC 2998 = test system: HCC 2998
# HCT-116 = test system: HCT-116
# HCT-15 = test system: HCT-15
# HL-60 = test system: HL-60
# HOP-62 = test system: HOP-62
# HOP-92 = test system: HOP-92
# HT-29 = test system: HT-29
# Hs-578T = test system: Hs-578T
# IGROV-1 = test system: IGROV-1
# K562 = test system: K562
# KM12 = test system: KM12
# LOX IMVI = test system: LOX IMVI
# M14 = test system: M14
# MDA-MB-231 = test system: MDA-MB-231
# MDA-MB-435 = test system: MDA-MB-435
# MDA-N = test system: MDA-N
# MOLT-4 = test system: MOLT-4
# Malme-3M = test system: Malme-3M
# NCI-H226 = test system: NCI-H226
# NCI-H23 = test system: NCI-H23
# NCI-H460 = test system: NCI-H460
# NCI-H522 = test system: NCI-H522
# NCI/ADR-RES = test system: NCI/ADR-RES
# OVCAR-3 = test system: OVCAR-3
# OVCAR-4 = test system: OVCAR-4
# OVCAR-5 = test system: OVCAR-5
# OVCAR-8 = test system: OVCAR-8
# PC-3 = test system: PC-3
# RPMI-8226 = test system: RPMI-8226
# RXF 393 = test system: RXF 393
# SF-268 = test system: SF-268
# SF-295 = test system: SF-295
# SF-539 = test system: SF-539
# SK-MEL-28 = test system: SK-MEL-28
# SK-MEL-2 = test system: SK-MEL-2
# SK-MEL-5 = test system: SK-MEL-5
# SK-OV-3 = test system: SK-OV-3
# SN12C = test system: SN12C
# SNB-19 = test system: SNB-19
# SNB-75 = test system: SNB-75
# SR = test system: SR
# SW-620 = test system: SW-620
# T47D = test system: T47D
# TK-10 = test system: TK-10
# U-251 = test system: U-251
# UACC-62 = test system: UACC-62
# UO-31 = test system: UO-31
# MCF7 = test system: MCF7
# UACC-257 = test system: UACC-257
smiles,measurement,setting,value
CCCCCC(C/C=N/N(C)C)C(O)(C(F)(F)F)C(F)(F)F (stereo unspecified),GI50,786-0,35.9 µM (inactive)
same,GI50,A498,23.7 µM (inactive)
same,GI50,A549,37.2 µM (inactive)
same,GI50,ACHN,24.4 µM (inactive)
same,GI50,CAKI-1,43.6 µM (inactive)
same,GI50,CCRF-CEM,17.1 µM (inactive)
same,GI50,COLO 205,16.3 µM (inactive)
same,GI50,DU-145,33.3 µM (inactive)
same,GI50,EKVX,41.6 µM (inactive)
same,GI50,HCC 2998,35.1 µM (inactive)
same,GI50,HCT-116,32 µM (inactive)
same,GI50,HCT-15,49.8 µM
same,GI50,HL-60,14.2 µM (inactive)
same,GI50,HOP-62,42.3 µM (inactive)
same,GI50,HOP-92,33 µM (inactive)
same,GI50,HT-29,29 µM (inactive)
same,GI50,Hs-578T,35.6 µM (inactive)
same,GI50,IGROV-1,19 µM (inactive)
same,GI50,K562,22.5 µM (inactive)
same,GI50,KM12,36.3 µM (inactive)
same,GI50,LOX IMVI,43.2 µM (inactive)
same,GI50,M14,38.7 µM (inactive)
same,GI50,MDA-MB-231,27.5 µM (inactive)
same,GI50,MDA-MB-435,31 µM (inactive)
same,GI50,MDA-N,38.4 µM (inactive)
same,GI50,MOLT-4,29.4 µM (inactive)
same,GI50,Malme-3M,25.4 µM (inactive)
same,GI50,NCI-H226,41.5 µM (inactive)
same,GI50,NCI-H23,25.2 µM (inactive)
same,GI50,NCI-H460,36.4 µM (inactive)
same,GI50,NCI-H522,19.7 µM (inactive)
same,GI50,NCI/ADR-RES,> 100 µM (inactive)
same,GI50,OVCAR-3,9.31 µM (inactive)
same,GI50,OVCAR-4,53.2 µM (inactive)
same,GI50,OVCAR-5,65.6 µM (inactive)
same,GI50,OVCAR-8,41.5 µM (inactive)
same,GI50,PC-3,20.8 µM (inactive)
same,GI50,RPMI-8226,11.3 µM (inactive)
same,GI50,RXF 393,32 µM (inactive)
same,GI50,SF-268,36.7 µM (inactive)
same,GI50,SF-295,42.5 µM (inactive)
same,GI50,SF-539,35.2 µM (inactive)
same,GI50,SK-MEL-28,45.8 µM (inactive)
same,GI50,SK-MEL-2,25.9 µM (inactive)
same,GI50,SK-MEL-5,16.6 µM (inactive)
same,GI50,SK-OV-3,33.9 µM (inactive)
same,GI50,SN12C,28.2 µM (inactive)
same,GI50,SNB-19,37 µM (inactive)
same,GI50,SNB-75,29 µM (inactive)
same,GI50,SR,34.8 µM (inactive)
same,GI50,SW-620,38 µM (inactive)
same,GI50,T47D,25.9 µM (inactive)
same,GI50,TK-10,54.2 µM (inactive)
same,GI50,U-251,25.4 µM (inactive)
same,GI50,UACC-62,59.8 µM (inactive)
same,GI50,UO-31,36.2 µM (inactive)
c1ccc2c3nnc(c2c1)SCCSCCCSCCS3,GI50,786-0,29.1 µM (inactive)
same,GI50,A498,45.1 µM (inactive)
same,GI50,A549,91 µM (inactive)
same,GI50,ACHN,61.1 µM (inactive)
same,GI50,CAKI-1,39.7 µM (inactive)
same,GI50,CCRF-CEM,> 100 µM (inactive)
same,GI50,COLO 205,> 100 µM (inactive)
same,GI50,DU-145,> 100 µM (inactive)
same,GI50,EKVX,> 100 µM (inactive)
same,GI50,HCC 2998,> 100 µM (inactive)
same,GI50,HCT-116,> 100 µM (inactive)
same,GI50,HCT-15,> 100 µM
same,GI50,HL-60,> 100 µM (inactive)
same,GI50,HOP-62,29.4 µM (inactive)
same,GI50,HOP-92,37.2 µM (inactive)
same,GI50,HT-29,> 100 µM (inactive)
same,GI50,Hs-578T,32.4 µM (inactive)
same,GI50,IGROV-1,34.4 µM (inactive)
same,GI50,K562,> 100 µM (inactive)
same,GI50,KM12,> 100 µM (inactive)
same,GI50,LOX IMVI,> 100 µM (inactive)
same,GI50,M14,> 100 µM (inactive)
same,GI50,MCF7,> 100 µM (inactive)
same,GI50,MDA-MB-231,22.1 µM (inactive)
same,GI50,MDA-MB-435,> 100 µM (inactive)
same,GI50,MDA-N,> 100 µM (inactive)
same,GI50,Malme-3M,29.6 µM (inactive)
same,GI50,NCI-H226,35.6 µM (inactive)
same,GI50,NCI-H23,> 100 µM (inactive)
same,GI50,NCI-H460,> 100 µM (inactive)
same,GI50,NCI-H522,50.9 µM (inactive)
same,GI50,NCI/ADR-RES,75.3 µM (inactive)
same,GI50,OVCAR-3,38 µM (inactive)
same,GI50,OVCAR-4,2.9 µM (inactive)
same,GI50,OVCAR-5,> 100 µM (inactive)
same,GI50,OVCAR-8,56.9 µM (inactive)
same,GI50,PC-3,43.1 µM (inactive)
same,GI50,RXF 393,38.5 µM (inactive)
same,GI50,SF-268,43.5 µM (inactive)
same,GI50,SF-295,31.4 µM (inactive)
same,GI50,SF-539,12.6 µM (inactive)
same,GI50,SK-MEL-28,> 100 µM (inactive)
same,GI50,SK-MEL-2,58.7 µM (inactive)
same,GI50,SK-MEL-5,54.1 µM (inactive)
same,GI50,SK-OV-3,27.8 µM (inactive)
same,GI50,SN12C,53.8 µM (inactive)
same,GI50,SNB-19,26.5 µM (inactive)
same,GI50,SNB-75,3.52 µM (inactive)
same,GI50,SW-620,> 100 µM (inactive)
same,GI50,T47D,> 100 µM (inactive)
same,GI50,TK-10,48 µM (inactive)
same,GI50,U-251,36.1 µM (inactive)
same,GI50,UACC-257,> 100 µM (inactive)
same,GI50,UACC-62,57.5 µM (inactive)
same,GI50,UO-31,44.3 µM (inactive)

# Source: ChEMBL document CHEMBL1201862, “PubChem BioAssay data set” (2004)
